{"source": "patent US7776851B2", "about": "“Use of neurokinin antagonists in the treatment of urinary incontinence” (Novartis AG, priority 2003, dated 2010)", "key": {"conscious guinea pigs": {"system": "conscious guinea pigs", "test": "5-HTP-stimulated micturition (overactive urinary bladder responses) in conscious guinea pigs", "type": "in vivo, guinea pig", "details": "for decrease of micturition volume / decrease of voiding frequency: one hour prior to 5-HTP (10 mg/kg s.c.), assessed over 17 hours, mean±SEM", "method": "In conscious guinea pigs, an experimental paradigm is applied to stimulate micturition through subcutaneous administration of 5-hydroxytryptophan (5-HTP, 10 mg/kg). The measurement of both voiding frequency and micturition volume is used to quantify the effects of the compound of formula II (Belis, et al 1996). Vehicle or the compound of formula II (1 and 3 mg/kg) are dosed orally one hour prior to the stimulation with 5-HTP.\nThe effects of vehicle and the compound of formula II are assessed over 17 hours in 4 to 8 animals. […] The compound of formula II attenuates the overactive bladder responses upon stimulation with 5-HTP.\nThe effects are statistically significant at both doses tested (p<0.05; RM ANOVA, post-hoc Tukey test). See also FIG. 1."}, "[1]": {"system": "longitudinal muscle-nerve preparations from the guinea-pig urinary bladder", "test": "Substance P-stimulated detrusor contractility, organ bath", "type": "cell-based", "method": "Detrusor contractility is tested in longitudinal muscle-nerve preparations from the guinea-pig urinary bladder (Mackenzie and Burnstock 1984). In organ bath studies, isometric contractile responses are evoked by cumulative application of substance P (0.1 nM up to 30 μM). Substance P stimulates contractions in a concentration-dependent fashion (pD2=6.68±0.23; mean±SEM; n=5 preparations)."}, "[2]": {"details": "5-HTP 10 mg/kg subcutaneous, over 17 hours"}}, "data": [{"compound": "N[C@@H](Cc1c[nH]c2ccc(O)cc12)C(=O)O", "note": "[S-HTP, 5-hydroxytryptophan, reference compound]", "values": [{"measurement": "increase of micturition volume as compared to control animals", "setting": "conscious guinea pigs; [2]", "result": 4.5, "unit": "fold"}, {"measurement": "increase of voiding frequency as compared to control animals", "setting": "conscious guinea pigs; [2]", "result": 2.7, "unit": "fold"}]}, {"compound": "substance P [reference compound]", "values": [{"measurement": "pD2, stimulation of isometric contractions", "setting": "[1]; cumulative application 0.1 nM up to 30 μM, mean±SEM, n=5 preparations", "result": "6.68±0.23"}]}, {"compound": "CN(C(=O)c1cc(C(F)(F)F)cc(C(F)(F)F)c1)[C@@H](/C=C/C(=O)N[C@@H]1CCCCNC1=O)Cc1ccc(Cl)c(Cl)c1", "note": "[compound of formula II, (4R)-4-[N′-methyl-N′-(3,5-bistrifluoromethylbenzoyl)amino]-4-(3,4-dichlorobenzyl)-but-2-enoic acid N-[(R)-epsilon-caprolactam-3-yl]-amide]", "values": [{"measurement": "Schild plot slope", "setting": "[1]; 10 nM, 100 nM and 1000 nM vs substance P", "result": "−0.98"}, {"measurement": "pA2 (Schild plot analysis), inhibition of substance P-evoked contractile responses", "setting": "[1]; 10 nM, 100 nM and 1000 nM, competitive, substance P 0.1 nM up to 30 μM cumulative", "result": 7.97}, {"measurement": "decrease of micturition volume", "setting": "conscious guinea pigs; 1 mg/kg p.o.", "result": "32.9%±4.5%"}, {"measurement": "decrease of voiding frequency", "setting": "conscious guinea pigs; 1 mg/kg p.o.", "result": "45.4%±7.1%"}, {"measurement": "decrease of micturition volume", "setting": "conscious guinea pigs; 3 mg/kg p.o.", "result": "36.6%±6.2%"}, {"measurement": "decrease of voiding frequency", "setting": "conscious guinea pigs; 3 mg/kg p.o.", "result": "26.2%±7.1%"}]}]}
